Literature values in US7262212B2, “2,3-dihydro-6-nitroimidazo[2,1-b]oxazoles” (Otsuka Pharmaceutical Co., Ltd., priority 2002, dated 2007).

Tested on: multi-drug-resistant Mycobacterium tuberculosis
Conditions: multi-drug-resistant strain; cited from earlier work

Compound: CCC1Cn2cc([N+](=O)[O-])nc2O1 (stereo not shown) [CGI-17341]
- bactericidal action: has a bactericidal action
